Assay results reported in patent US20240124460A1, “METHODS AND COMPOSITIONS FOR TARGETED PROTEIN DEGRADATION” (Ranok Therapeutics (Hangzhou) Co. Ltd., priority 2020, published 2024).
Like-named read-outs stand apart in the source and are kept apart here.

How the values were obtained:
[1] = system: MV-4-11 human acute myeloid leukemia; test: MV-4-11 CCK-8 proliferation assay; type: cell-based; settings: MV-4-11 cells, 72 hr
How it was run: (§1)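 CCK-8 absorbance read-out, with inhibition expressed against DMSO-treated cells after subtracting a cell-free DMSO medium blank. Compounds tested over a 3-fold dilution series spanning 20 μM to 1.02 nM; lines grown essentially as ATCC recommends.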

[2] = system: U-87 MG human glioblastoma; test: U87 MG CCK-8 proliferation assay; type: cell-based; settings: U-87 MG cells, read-out: U87MG CCK-8
How it was run: as §1

HSP90α protein = biological target: T1, HSP90α protein (Homo sapiens, UniProt P07900); test: HSP90α-binding FP (BODIPY) assay; settings: FP competition with BODIPY-labeled RNK04010
T1 construct: purchased BPS Bioscience #50298
How it was run: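 Fluorescence polarization measured competition with N-terminal human HSP90α, using either FITC-geldanamycin or BODIPY-labelled triazolone RNK04010 as tracer (5 nM final each). Compounds were tested in 2.5-fold dilutions from 20 μM to 5.2 nM, with incubation at 25 °C for 120 min (FITC) or 300 min (BODIPY).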

| Compound | EC50 ([1]; Homo sapiens, MV4-11) [nM] | EC50 ([2]; Homo sapiens, U-87 MG, 72 h) [nM] | IC50 (HSP90α protein) [nM] | EC50 [1] [nM] | EC50 ([2]; 72 hr) [nM] |
| --- | --- | --- | --- | --- | --- |
| CCOc1cc(N2CCC(C(=O)NCc3ccc(-n4c(O)nnc4-c4cc(CC)c(O)cc4O)cc3C(F)(F)F)CC2)ccc1Nc1ncc2c(n1)N(S(C)(=O)=O)c1ccccc1C(=O)N2C [Compound 089, 1-(3-ethoxy-4-((5-methyl-11-(methylsulfonyl)-6-oxo-6,11-dihydro-5H-benzo[e]pyrimido[5,4-b][1,4]diazepin-2-yl)amino)phenyl)-N-(4-(3-(5-ethyl-2,4-dihydroxyphenyl)-5-hydroxy-4H-1,2,4-triazol-4-yl)-2-(trifluoromethyl)benzyl)piperidine-4-carboxamide] | 100 to 1000 | > 1000 | 100 to 1000 | – | – |
| CCCc1cc(-c2nnc(O)n2-c2ccc(CN3CCN(C(=O)C4CCN(c5ccc(Nc6ncc7c(n6)N(S(C)(=O)=O)c6ccccc6C(=O)N7C)c(OCC)c5)CC4)CC3)cc2)c(O)cc1O [Compound 087, 2-((4-(4-(4-(4-(3-(2,4-dihydroxy-5-propylphenyl)-5-hydroxy-4H-1,2,4-triazol-4-yl)benzyl)piperazine-1-carbonyl)piperidin-1-yl)-2-ethoxyphenyl)amino)-5-methyl-11-(methylsulfonyl)-5,11-dihydro-6H-benzo[e]pyrimido[5,4-b][1,4]diazepin-6-one] | < 100 | 100 to 1000 | 100 to 1000 | – | – |
| CCOc1cc(N2CCC(C(=O)N3CCC(Cc4ccc(CN(C)Cc5ccc(-n6c(C(=O)NCC(F)(F)F)nnc6-c6cc(CC)c(O)cc6O)cc5)cc4)CC3)CC2)ccc1Nc1ncc2c(n1)N(S(C)(=O)=O)c1ccccc1C(=O)N2C [Compound 097, 4-(4-(((4-((1-(1-(3-ethoxy-4-((5-methyl-11-(methylsulfonyl)-6-oxo-6,11-dihydro-5H-benzo[e]pyrimido[5,4-b][1,4]diazepin-2-yl)amino)phenyl)piperidine-4-carbonyl)piperidin-4-yl)methyl)benzyl)(methyl)amino)methyl)phenyl)-5-(5-ethyl-2,4-dihydroxyphenyl)-N-(2,2,2-trifluoroethyl)-4H-1,2,4-triazole-3-carboxamide] | < 100 | > 1000 | 100 to 1000 | – | – |
| CCOc1cc(N2CCC(C(=O)N[C@H](C)c3ccc(CN4CCC(Cc5ccc(-n6c(O)nnc6-c6cc(C(C)C)c(O)cc6O)cc5)CC4)cc3)CC2)ccc1Nc1ncc2c(n1)N(C)c1ccccc1C(=O)N2C [Compound 045, (R)—N-(1-(4-((4-(4-(3-(2,4-dihydroxy-5-isopropylphenyl)-5-hydroxy-4H-1,2,4-triazol-4-yl)benzyl)piperidin-1-yl)methyl)phenyl)ethyl)-1-(4-((5,11-dimethyl-6-oxo-6,11-dihydro-5H-benzo[e]pyrimido[5,4-b][1,4]diazepin-2-yl)amino)-3-ethoxyphenyl)piperidine-4-carboxamide] | < 100 | 100 to 1000 | 100 to 1000 | – | – |
| CCOc1cc(N2CCC(C(=O)N3CCN(Cc4ccc(-n5c(O)nnc5-c5cc(C)c(O)cc5O)cc4)CC3)CC2)ccc1Nc1ncc2c(n1)N(C)c1ccccc1C(=O)N2C [Compound 048, 2-((4-(4-(4-(4-(3-(2,4-dihydroxy-5-methylphenyl)-5-hydroxy-4H-1,2,4-triazol-4-yl)benzyl)piperazine-1-carbonyl)piperidin-1-yl)-2-ethoxyphenyl)amino)-5,11-dimethyl-5,11-dihydro-6H-benzo[e]pyrimido[5,4-b][1,4]diazepin-6-one] | < 100 | 100 to 1000 | 100 to 1000 | – | – |
| CCOc1cc(N2CCC(C(=O)N3CCN(Cc4ccc(-n5c(O)nnc5-c5cc(C)c(O)cc5O)cc4)CC3)CC2)ccc1Nc1ncc2c(n1)N(S(C)(=O)=O)c1ccccc1C(=O)N2C [Compound 085, 2-((4-(4-(4-(4-(3-(2,4-dihydroxy-5-methylphenyl)-5-hydroxy-4H-1,2,4-triazol-4-yl)benzyl)piperazine-1-carbonyl)piperidin-1-yl)-2-ethoxyphenyl)amino)-5-methyl-11-(methylsulfonyl)-5,11-dihydro-6H-benzo[e]pyrimido[5,4-b][1,4]diazepin-6-one] | < 100 | 100 to 1000 | 100 to 1000 | – | – |
| CCCc1cc(-c2nnc(O)n2-c2ccc(CNC(=O)C3CCN(c4ccc(Nc5ncc6c(n5)N(S(C)(=O)=O)c5ccccc5C(=O)N6C)c(OCC)c4)CC3)cc2)c(O)cc1O [Compound 074, N-(4-(3-(2,4-dihydroxy-5-propylphenyl)-5-hydroxy-4H-1,2,4-triazol-4-yl)benzyl)-1-(3-ethoxy-4-((5-methyl-11-(methylsulfonyl)-6-oxo-6,11-dihydro-5H-benzo[e]pyrimido[5,4-b][1,4]diazepin-2-yl)amino)phenyl)piperidine-4-carboxamide] | 100 to 1000 | > 1000 | > 1000 | – | – |
| CCOc1cc(N2CCC(C(=O)N3CCN(Cc4ccc(-n5c(O)nnc5-c5cc(CC)c(O)cc5O)cc4)CC3)CC2)ccc1Nc1ncc2c(n1)N(S(C)(=O)=O)c1ccccc1C(=O)N2C [Compound 086, 2-((2-ethoxy-4-(4-(4-(4-(3-(5-ethyl-2,4-dihydroxyphenyl)-5-hydroxy-4H-1,2,4-triazol-4-yl)benzyl)piperazine-1-carbonyl)piperidin-1-yl)phenyl)amino)-5-methyl-11-(methylsulfonyl)-5,11-dihydro-6H-benzo[e]pyrimido[5,4-b][1,4]diazepin-6-one] | < 100 | 100 to 1000 | < 100 | – | – |
| CCOc1cc(N2CCC(C(=O)N3CCN(c4ccc(-n5c(O)nnc5-c5cc(C(C)C)c(O)cc5O)cc4)CC3)CC2)ccc1Nc1ncc2c(n1)N(C)c1ccccc1C(=O)N2C [Compound 023, 2-((4-(4-(4-(4-(3-(2,4-dihydroxy-5-isopropylphenyl)-5-hydroxy-4H-1,2,4-triazol-4-yl)phenyl)piperazine-1-carbonyl)piperidin-1-yl)-2-ethoxyphenyl)amino)-5,11-dimethyl-5,11-dihydro-6H-benzo[e]pyrimido[5,4-b][1,4]diazepin-6-one] | < 100 | 100 to 1000 | 100 to 1000 | – | – |
| CCOc1cc(N2CCC(C(=O)N3CCN(Cc4ccc(-n5c(O)nnc5-c5cc(C(C)C)c(O)cc5O)cc4C(F)(F)F)CC3)CC2)ccc1Nc1ncc2c(n1)N(C)c1ccccc1C(=O)N2C [Compound 046, 2-((4-(4-(4-(4-(3-(2,4-dihydroxy-5-isopropylphenyl)-5-hydroxy-4H-1,2,4-triazol-4-yl)-2-(trifluoromethyl)benzyl)piperazine-1-carbonyl)piperidin-1-yl)-2-ethoxyphenyl)amino)-5,11-dimethyl-5,11-dihydro-6H-benzo[e]pyrimido[5,4-b][1,4]diazepin-6-one] | < 100 | 100 to 1000 | 100 to 1000 | – | – |
| CCOc1cc(N2CCC(C(=O)NCCOCCOc3ccc(Nc4ccc(-n5nc(C(F)(F)F)c6c5CC(C)(C)CC6=O)cc4C(N)=O)cc3)CC2)ccc1Nc1ncc2c(n1)N(S(C)(=O)=O)c1ccccc1C(=O)N2C [Compound 067, N-(2-(2-(4-((2-carbamoyl-4-(6,6-dimethyl-4-oxo-3-(trifluoromethyl)-4,5,6,7-tetrahydro-1H-indazol-1-yl)phenyl)amino)phenoxy)ethoxy)ethyl)-1-(3-ethoxy-4-((5-methyl-11-(methylsulfonyl)-6-oxo-6,11-dihydro-5H-benzo[e]pyrimido[5,4-b][1,4]diazepin-2-yl)amino)phenyl)piperidine-4-carboxamide] | 100 to 1000 | > 1000 | > 1000 | – | – |
| CCOc1cc(N2CCC(C(=O)NCc3ccc(-n4c(O)nnc4-c4cc(C)c(O)cc4O)cc3)CC2)ccc1Nc1ncc2c(n1)N(S(C)(=O)=O)c1ccccc1C(=O)N2C [Compound 073, N-(4-(3-(2,4-dihydroxy-5-methylphenyl)-5-hydroxy-4H-1,2,4-triazol-4-yl)benzyl)-1-(3-ethoxy-4-((5-methyl-11-(methylsulfonyl)-6-oxo-6,11-dihydro-5H-benzo[e]pyrimido[5,4-b][1,4]diazepin-2-yl)amino)phenyl)piperidine-4-carboxamide] | > 1000 | > 1000 | > 1000 | – | – |
| CCOc1cc(N2CCC(C(=O)N3CCC(CN4CCN(Cc5ccc(-n6c(C(=O)NC(CC)CC)nnc6-c6cc(CC)c(O)cc6O)cc5)CC4)CC3)CC2)ccc1Nc1ncc2c(n1)N(S(C)(=O)=O)c1ccccc1C(=O)N2C [Compound 084, 4-(4-((4-((1-(1-(3-ethoxy-4-((5-methyl-11-(methylsulfonyl)-6-oxo-6,11-dihydro-5H-benzo[e]pyrimido[5,4-b][1,4]diazepin-2-yl)amino)phenyl)piperidine-4-carbonyl)piperidin-4-yl)methyl)piperazin-1-yl)methyl)phenyl)-5-(5-ethyl-2,4-dihydroxyphenyl)-N-(pentan-3-yl)-4H-1,2,4-triazole-3-carboxamide] | < 100 | 100 to 1000 | 100 to 1000 | – | – |
| (1R,4R)-4-((2-carbamoyl-5-(6,6-dimethyl-4-oxo-3-(trifluoromethyl)-4,5,6,7-tetrahydro-1H-indazol-1-yl)phenyl)amino)cyclohexyl 4-(1-(1-(3-ethoxy-4-((5-methyl-11-(methylsulfonyl)-6-oxo-6,11-dihydro-5H-benzo[e]pyrimido[5,4-b][1,4]diazepin-2-yl)amino)phenyl)piperidine-4-carbonyl)piperidin-4-yl)piperazine-1-carboxylate [Compound 118] | – | – | > 1000 | 100 to 1000 | > 1000 |
